Laboratory results from patent publication US4897397A, “Aryl-alkynoic, alkenoic or alkanoic compounds and compositions useful as antiallergy and anti-inflammatory agents” (Schering Corporation, priority 1988, dated 1990).

Biological target: T1, 5-Lipoxygenase (Mus musculus, UniProt P48999)
T1 construct: Use the interleukin-3-dependent murine mast cell clone, MC-9; endogenous in cells; host or cells: MC-9 murine mast cell clone (interleukin-3-dependent)
T1 sequence (P48999 1-674): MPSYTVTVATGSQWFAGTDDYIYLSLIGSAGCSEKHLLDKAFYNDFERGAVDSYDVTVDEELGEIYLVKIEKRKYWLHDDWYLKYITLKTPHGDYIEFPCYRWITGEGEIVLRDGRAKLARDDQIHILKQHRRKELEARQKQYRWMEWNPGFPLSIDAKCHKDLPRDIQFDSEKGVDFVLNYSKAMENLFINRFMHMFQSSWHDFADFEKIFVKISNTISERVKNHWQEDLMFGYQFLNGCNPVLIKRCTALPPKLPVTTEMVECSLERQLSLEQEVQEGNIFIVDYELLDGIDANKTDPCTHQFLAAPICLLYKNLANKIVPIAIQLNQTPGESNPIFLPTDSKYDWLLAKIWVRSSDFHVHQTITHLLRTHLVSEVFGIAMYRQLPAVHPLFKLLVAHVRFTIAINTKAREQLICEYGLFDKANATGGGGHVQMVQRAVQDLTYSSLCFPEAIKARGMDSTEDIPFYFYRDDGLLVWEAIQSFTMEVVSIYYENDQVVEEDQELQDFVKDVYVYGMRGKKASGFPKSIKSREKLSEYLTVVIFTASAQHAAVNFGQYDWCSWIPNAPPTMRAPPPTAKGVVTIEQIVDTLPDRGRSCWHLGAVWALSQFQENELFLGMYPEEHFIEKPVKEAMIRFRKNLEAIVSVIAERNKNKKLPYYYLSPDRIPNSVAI
Assay: 5-Lipoxygenase Assay (inhibition of LTC4 and 5-HETE production in MC-9 mast cells)
Assay type: cell-based
Settings: MC-9 murine mast cells, [14C]-arachidonic acid, A23187
Source text: Use the interleukin-3-dependent murine mast cell clone, MC-9, to test the effects of representative compounds of the invention on lipoxygenase activity. Grow the MC-9 cell line in suspension culture (0.4 to 1.2×10^6 cells/ml) in RPMI 1640 medium (Gibco) with 10% fetal bovine serum (Hyclone) and 2-5% concanavalin-A conditioned supernatant (Musch et. al., (1985) Prostagandins 29, 405-4307). Harvest the cells, wash them twice by centrifugation, and resuspend them in a Ca^++ -free HEPES buffer (25 mM HEPES, 125 mM NaCl, 2.5 mMKCl, 0.7 mM MgCl2 0.5 mM EDTA and 10 mM glucose at pH 7.4).
Preincubate MC-9 cells (0.39 ml at 7.5×10^6 cells/ml) without or with test compound dissolved in dimethylsulfoxide (DMSO) vehicle (to final volume 1 ml) for 4 minutes then incubate for 5 minutes with [^14 C]-arachidonic acid (Amersham, 59 Ci/mole) at a […] final concentration, and A23187 (Calbiochem) at a […] final concentration in […] of water:ethanol (9:1). Stop the reaction by addition of methanol (0.4 ml), and remove cellular debris by centrifugation. Run aliquots ([…]) of the incubations on a Waters two-pump HPLC system fitted with a Waters radial compression column (C18, 10 micron, 8×100 mm, micro-Bondapak) and C18 "Guard Pak". Initially elute the column at 3 ml/min with water:methanol:acetic acid (67:33:0.08) containing 1 mM EDTA adjusted to pH 6.0 with ammonium hydroxide (Pump A). At 4 minutes, establish a linear gradient to reach 100% methanol (Pump B) at 9 minutes. Between 13 and 14 minutes, exchange for the initial eluting solvent and by 19 minutes the column will be reequilibrated for the next sample. Analyze the effluent by a continuous flow radioactivity monitor (model ROMONA-D) interfaced with a Hewlett Packard Lab Automation System for quantitation of radioactive products.
These products are predominantly leukotriene C4 (LTC4), which elutes at 6 minutes, and 5-hydroxeicosatetraenoic acid (5-HETE), which elutes at 11 minutes (Musch et. al., supra). […] Doses in table 1 are 50 μM unless otherwise noted.

Row | inhibition at 50 µM [%] | Structure (SMILES)
1 | 80 | O=C(O)CCCCCc1cccc(OCc2ccccc2)c1
2 | 89 | CCOC(=O)CCC/C=C/c1cccc(OCc2c[nH]cn2)c1
3 | 74 | O=C(O)CCC/C=C/c1cccc(Oc2ccccc2)c1
4 | 7 | O=C(O)CCC/C=C/c1cccc(OCc2cccnc2)c1
5 | 80 | O=C(O)CCCC#Cc1cccc(OCc2ccccc2)c1
6 | 84 | O=C(O)CCC/C=C/c1cccc(OCc2ccccc2)c1
7 | 23 | O=C(O)CCC/C=C/c1cccc(OCC2CCCCO2)c1 (stereo not drawn)
8 | 89 | O=C(O)CCC/C=C\c1cccc(OCc2ccccc2)c1
9 | 0 | O=C(O)CCC/C=C/c1cccc(SCc2ccccc2)c1
